Measurements published in US8361779B2, “Buffer compounds” (Sachem, Inc., priority 2010, dated 2013).
Entries after “also recorded” stand apart in the source; their conditions may differ. Counter-ions that a name gives are not always drawn. Like-named read-outs stand apart in the source and are kept apart here.

Legend:
[1] = Precision measurements of pKa-values by pH titration; type: physicochemical; settings: titrated with 100 mM KOH, six titrations, 25° C., ionic-strength 0.10 unless otherwise specified (b6); for Meas. pKa: 10 mM buffer, 80 mM KCl
Procedure: High purity analytical quality reagents are used in these studies: potassium chloride, potassium hydroxide, primary standard potassium acid phthalate (KAP, Baker), 18 meg-ohm deionized doubly-distilled water (CO2-free). […] They are dried in a vacuum oven at 50° C. for 18-24 hours and stored in a glass desiccator over P2O5. The only remaining impurities are inert water/solvent and traces of residual HCl or HBr. Most buffers are stable in atmospheric air; a few are somewhat hygroscopic. During the weighing of the buffer compounds, care is taken to prevent or minimize absorption of atmospheric moisture. Solutions containing 10 mM buffer and 80 mM KCl are carefully prepared using degassed, deionized water and standardized volumetric flasks. Six independent pH titrations are carried out for each buffer compound using 100 mM carbonate-free KOH that is carefully standardized against KAP.
The titrator is controlled and data collected by LabX Titration software, version 2.5. The titration cell is thermostatically controlled at 10.00±0.05° C., 25.00±0.05° C. or 40.00±±0.05° C. Temperatures are measured using a NIST-traceable mercury thermometer. Titrations are adjusted so that the endpoint is close to 5 mL delivery point of the burette. Incremental titrations are carried out with increment volume of 100 μl and with continuous stirring; the system is allowed to settle after each incremental addition (10-30 sec) before a reading is recorded. Accurate, NIST-traceable buffers (±0.001 pH unit) with accurately known values at 2, 4, 7, 10, 12 in the temperature range 10-40° C. are used (Oakton Instruments, Vernon Hills, Ill.). The electrode is calibrated at pH=2, 4, 10 and 12. The pH=7 buffer is independently measured. If the pH=7 measurement is accurate to ±0.002 pH unit, a titration is carried out; if not, the calibration is repeated. A pH calibration is carried out before each titration experiment. […]

[2] = pKa values quoted for buffers (buffer combinations table); type: physicochemical; settings: for pKa of buffer in cationic/anionic buffer combinations / pKa: 25° C., ionic-strength 0.10 unless otherwise specified (b6); for pKa: aqueous solution, read-out: pKa of buffer in cationic/anionic buffer combinations
Source text: pH is a measurement of solvated hydrogen-ion activity, which is directly related to hydrogen ion concentration: −log [H^+]. […] Activity is a defined thermodynamic term and is related to concentration. At low concentration and low ionic-strength, activity approximately equals concentration. […] Such pKa values are more applicable to practical conditions than are thermodynamic pKa values where μ≈0. […] Initially, approximately equal concentrations are chosen.

[3] = test system: Escherichia coli, Pseudomonas fluorescens, Pichia pastoris, Saccharyomyces cerevisiae; experiment: Microbial growth-inhibition assays, all four organisms; type: cell-based; settings: for comparative growth behaviour between buffers: all four organisms, pH 7.0; for order of growth inhibition at higher concentrations: standard buffers
Procedure: (§1) Microbial growth inhibition assays are carried out 96-well plates with well volume of 400 μL. In the present inventors' hands, data obtained in this manner are almost equivalent to that obtained in traditional shake flasks while data collection is more accurate and convenient. Two calibrated plate readers are used so that two plates, corresponding to a single organism, could be read at the same time. Each plate contains 80 cells for one organism and four buffers each at five concentrations (25, 50, 100, 225, 500 mM) with each buffer-concentration combination (20) being replicated four-fold. Each of these cells contained 50 μL of a fresh, calibrated cell culture plus 250 μL fresh sterile cell culture. In addition, each plate contained eight identical cells with 250 μL sterile, buffer-free growth medium plus 50 μL fresh cell culture and eight cells with 300 μL sterile growth medium and no organism. Microbial growth is measured by light-scattering/absorbance measurements at 600 nm every 15-60 minutes for the prescribed period. Every 15 minutes, each plate undergoes agitation/vibration which resuspends the organisms and promotes aeration; this process is repeated just prior to each absorbance reading. For each medium, six bottles of sterile media are prepared, one for each buffer concentration (0, 30, 60, 120, 270, 600 mM) so that when each is diluted in the plate, the desired concentrations will be obtained. The media components (see below), added buffer and water are mixed, and the pH is adjusted to the proper value. Each bottle of medium is heat sterilized (121° C., 15 psig, 20 minutes), cooled and, if necessary, the pH is readjusted to the proper value in a sterile fashion with 37% HCl or 50% NaOH.
Based upon prior experience with these organisms, a series of microbial growth measurements are carried out to determine optimal growth conditions. Four different media compositions unique to each organism each at four pH values (6.0, 6.5, 7.0, 7.5) are measured at three temperatures (23° C., 30° C., 37° C.). Fortunately, combinations of near optimal growth conditions have been found so that the same pH of 7.0±0.1 could be used for all four organisms that are listed below:
Compositions of growth media are listed below for one liter of medium. pH is adjusted to 7.0±0.1 both before and after heat sterilization. Similar growth results are obtained when the added cationic buffer is added before heat-sterilization and after heat-sterilization via sterile filtration. Several useful growth media containing methanol are known for Pichia, but ME broth is equally good under the current conditions, and then evaporation of methanol is not a problem. Amounts below are given as g/L in sterilized growth medium.
The bacterial and yeast strains are grown up and counted several times in each respective growth medium obtain fresh, stable, reproducible cultures of known density as a function of time. Microbial counting is carried out in the usual fashion by using serial dilutions followed by plate counting. Each culture is diluted and plated three times, and the values are averaged. When a culture reaches the proper microbial density (cfu/mL), two 96-well plates are quickly loaded as described above, and plate reading is started using two matched plate readers.

[4] = Est. pKa of Table 1 compounds (approximate measurements of pKa-values); type: physicochemical; settings: for pKa: aqueous 80 mM KCl solution (pH titration with 100 mM KOH)
Procedure: This method is used when nonreactive impurities are >5% (HPLC), when reactive impurities are >1% (HPLC), when insufficient buffer is available or when noticeably poor curve fitting is seen in the above method. The experimental method is nearly the same as the above method, but the experimental volume-pH data are processed differently. Usually, only one or two titrations are carried out. The pKa is estimated to be the same as the pH of the titration curve at the half-equivalence point. The estimated pKa values can be as good at ±0.1 or as poor as ±0.5 depending on the nature and amounts of impurities.

[5] = Change in pKa of amine caused by proximal quaternary ammonium group; type: physicochemical
Source text: The presence of a quaternary ammonium (quat) group in a molecule that also contains an amine group will reduce the pKa of the amine as measured in aqueous media and polar nonaqueous media. […] All three effects as described will generally lead to some reduction of observed pKa in the molecule of interest. […] The amount of reduction in pKa depends on (1) the number of quat groups, (2) the distance of the quat group(s) from the amine and (3) the rigidity of the molecule that holds the quat group and amine in more fixed position with regard to each other.

[6] = test system: Pseudomonas fluorescens ATCC 19020; experiment: Microbial growth-inhibition assay, P. fluorescens; type: cell-based; settings: 30° C., PM broth
Procedure: as §1, with “For each medium, six bottles of sterile media are prepared, one for each buffer concentration (0, 30, 60, 120, 270, 600 mM) so that when each is diluted in the plate, the desired concentrations will be obtained. The media components (see below), added buffer and water are mixed, and the pH is adjusted to the proper value.” left out
Based upon prior experience with these organisms, a series of microbial growth measurements are carried out to determine optimal growth conditions. Four different media compositions unique to each organism each at four pH values (6.0, 6.5, 7.0, 7.5) are measured at three temperatures (23° C., 30° C., 37° C.). […]
The bacterial and yeast strains are grown up and counted several times in each respective growth medium obtain fresh, stable, reproducible cultures of known density as a function of time. […] When a culture reaches the proper microbial density (cfu/mL), two 96-well plates are quickly loaded as described above, and plate reading is started using two matched plate readers.

[7] = relative to trimethylamine, water at 25° C., μ=0.1, approximate numbers
[8] = single value, read-out: Est. pKa
[9] = HEPES, buffer combinations table

Molecule: O=S(=O)(O)CCCNC(CO)(CO)CO [TAPS]
- Meas. pKa [1]: 8.410
- pKa quoted in comparison of buffers with similar pKa values [2]: 8.4
- comparative growth behaviour between buffers [3]: consistently the best of all eight buffers tested; also recorded: is better than DEGA
- order of growth inhibition at higher concentrations [3]: TRIS>MES>TAPS

Molecule: 1,1,5,9-tetramethyl-2-hydroxy-5,9-bis(2-sulfoethyl)-1,5,9-triazanonane di-inner salt [Compound 82]
- Est. pKa, second of two values ([4]; wide-range buffer, higher pKa): ~8.0
- Est. pKa, first of two values ([4]; wide-range buffer, lower pKa): ~6.5

Molecule: CN(C)CCC[N+](C)(C)C.Cl.[Cl-] [Compound 29a, (3-trimethylammoniumpropyl) dimethylamine chloride hydrochloride]
- Est. pKa ([4]; single value): ~8.1

Molecule: C[N+](C)(C)CC(O)CN(CCO)CCCS(=O)(=O)[O-] (centres unmarked) [Compound 51, N-(2-hydroxy-3-trimethylammoniumpropyl)-N-(2-hydroxyethyl)homotaurine inner salt]
- Est. pKa ([4]; single value): ~6.4

Molecule: CN(C)CC(O)C(O)C[N+](C)(C)C (centres unmarked) [n = 4 (—CH2CH(OH)CH(OH)CH2—)]
- Change in pKa of Me2N— [5, 7]: ~−1.1 log K units

Molecule: CN(C)CCC[N+](C)(C)CCCP(=O)([O-])O [Compound 60, N,N,N′,N′-tetramethyl-N-(3-phosphonopropyl)-1,3-propanediammonium di-Inner salt]
- Est. pKa, second of two values ([4]; wide-range buffer, higher pKa): ~8.2
- Est. pKa, first of two values ([4]; wide-range buffer, lower pKa): ~6.8

Molecule: CN(C)CCC[N+](C)(C)C [n = 3 (—CH2CH2CH2—)]
- Change in pKa of Me2N— [5, 7]: ~−1.7 log K units

Molecule: Br.CN(C)C(=NCCC[N+](C)(C)C)N(C)C.[Br-] [Compound 76, 2-(3-trimethylammoniumpropyl)-1,1,3,3-tetramethylguanidine bromide hydrobromide]
- Est. pKa ([4]; single value): ~12.9

Molecule: O=S(=O)(O)CCNC(CO)(CO)CO [TES (H+)]
- pKa of buffer in cationic/anionic buffer combinations [2]: 7.5

Molecule: CCN(CC)CC(O)C[N+](C)(C)C.[Cl-] (centres unmarked) [Compound 10, N-(2-hydroxy-3-trimethylammonium-propyl)diethylamine chloride]
- pKa quoted in comparison of buffers with similar pKa values [2]: 8.5
- comparative growth behaviour between buffers [3]: TAPS (8.4) is better than DEGA
- comparative growth of Pseudomonas [6]: DEAGA and MEAGA are clearly better than DIMEGA and DEGA

Molecule: CCN(CC)CCC[N+](C)(CC)CC [Compound 30a]
- pKa [4, 8]: ~8.7

Molecule: O=S(=O)(O)CCN1CCOCC1 [MES]
- comparative growth behaviour between buffers [3]: about the same behavior

Molecule: O=S(=O)(O)CCN1CCN(CCO)CC1 [HEPES]
- pKa1 [2, 9]: 3.0
- pKa2 [2, 9]: 7.5

Molecule: Br.CCOP(=O)(CCC[N+](C)(C)CCCN(C)C)OCC.[Br-] [Compound 79a, N,N,N′,N′-tetramethyl-N-(3-diethylphosphonopropyl)-1,3-propanediamine diethyl ester bromide•hydrobromide]
- Est. pKa ([4]; single value): ~8.1

Molecule: C[N+](C)(C)CC(O)CNCCO.Cl.[Cl-] (centres unmarked) [Compound 78a, N-(3-trimethylammonium-2-hydroxypropyl)ethanolamine chloride hydrochloride]
- Est. pKa ([4]; single value): ~7.8

Molecule: CCN(CC)CC[N+](C)(CC)CC [Compound 28a]
- pKa [4, 8]: ~6.7

Molecule: CN(CCO)CC[N+](C)(C)CCO [Compound 20a]
- pKa [4, 8]: ~5.2

Molecule: CCN(CC)CCCCCC[N+](C)(CC)CC [Compound 34a]
- pKa [4, 8]: ~10.1

Molecule: CN(C)CC(O)C[N+](C)(C)C (centres unmarked) [n = 3 (—CH2CH(OH)CH2—)]
- Change in pKa of Me2N— [5, 7]: ~−1.9 log K units

Molecule: CN(CCCS(=O)(=O)O)CC[N+](C)(C)CCCS(=O)(=O)[O-] [Compound 66, N,N′,N′-trimethyl-N,N′-bis(3-sulfopropyl)ethylenediammonium di-inner salt]
- Est. pKa ([4]; single value): ~5.5

Molecule: C[N+](C)(C)CC(O)CC(=O)[O-] (centres unmarked) [Carnitine HCl]
- pKa ([1]; aqueous solution of 10 mM buffer and 80 mM KCl, read-out: Meas. pKa): 3.83

Molecule: C[N+](C)(C)CC(O)CNC(CO)(CO)CO (centres unmarked) [Compound 19a]
- pKa [4, 8]: ~5.8

Molecule: O=S(=O)(O)CCNC1CCCCC1 [CHES (H+)]
- pKa of buffer in cationic/anionic buffer combinations [2]: 9.4

Molecule: CN(C)CC=CC[N+](C)(C)C [n = 4 (trans —CH2CH═CHCH2—)]
- Change in pKa of Me2N— [5, 7]: ~−1.3 log K units

Molecule: CN1CCN(C)C1=NCC[N+](C)(C)C.Cl.[Cl-] [Compound 77, N(2-(1′,3′-dimethylimidazoline-2′-iminato)ethyl)trimethyl-ammonium chloride hydrochloride]
- Est. pKa ([4]; single value): ~11.1

Molecule: CN(C)CC(O)C[N+](C)(CCCN(C)CCS(=O)(=O)O)CCS(=O)(=O)[O-] (centres unmarked) [Compound 59]
- pKa ([4]; wide-range buffer, higher pKa, read-out: Est. pKa, second of two values): ~8
- pKa ([4]; wide-range buffer, lower pKa, read-out: Est. pKa, first of two values): ~6.5

Molecule: CN(C)CCC[N+](C)(C)CCCS(=O)(=O)[O-] [Compound 57, N,N,N′,N′-tetramethyl-N-(3-sulfopropyl)-1,3-propanediamine Inner salt]
- Est. pKa ([4]; single value): ~8.1

Molecule: CN1CCC[N+](C)(C)CC1 [N,N′,N′-Me3-Homopiperazinium^+]
- Change in pKa of Me2N— [5, 7]: ~−3.6 log K units

Molecule: C[N+]12CCN(CC1)CC2 [N-Me-Diazabicyclo[2.2.2]octane^+]
- Change in pKa of Me2N— [5]: ~−6.7 log K units

Molecule: CN(CCC[N+](C)(CCS(=O)(=O)[O-])CC(O)C[N+](C)(C)Cc1ccccc1)CCS(=O)(=O)[O-] (centres unmarked) [Compound 81, 1-benzyl-1,1,5,9-tetramethyl-3-hydroxy-5,9-bis(2-sulfoethyl)-1,5,9-triazanonane, di-inner salt]
- Est. pKa ([4]; single value): ~6.1

Molecule: O=S(=O)(O)CCCN1CCOCC1 [MOPS]
- Meas. pKa [1]: 7.099

Molecule: COCC(=O)O [Methoxyacetic Acid]
- pKa [2]: 3.3

Molecule: CN(C)CCCCC[N+](C)(C)C [n = 5 (—CH2(CH2)3CH2—)]
- Change in pKa of Me2N— [5, 7]: ~−0.5 log K units

Molecule: CN1CC[N+](C)(C)CC1 [N,N′,N′-Me3-Piperazinium^+]
- Change in pKa of Me2N— [5, 7]: ~−5.5 log K units

Molecule: CN(C)C[N+](C)(C)C [n = 1* (—CH2—)]
- hydrolytic stability [5]: Limited hydrolytic stability
- Change in pKa of Me2N— [5, 7]: ~−10.5 log K units

Molecule: CN(C)CCCC[N+](C)(C)C [n = 4 (—CH2(CH2)2CH2—)]
- Change in pKa of Me2N— [5, 7]: ~−0.9 log K units

Molecule: OB(O)O [Boric Acid]
- pKa [2]: 9

Molecule: CCN(C(C)C)C1CC[N+](CC)(CC)CC1 [Compound 74a]
- pKa [4, 8]: ~7.4

Molecule: CN(C)CCCCCC[N+](C)(C)C [n = 6 (—CH2(CH2)4CH2—)]
- Change in pKa of Me2N— [5, 7]: ~−0.3 log K units

Molecule: NC(CO)(CO)CO [TRIS]
- comparative growth behaviour between buffers [3]: DIMEGA (7.9) is better than TRIS
- order of growth inhibition at higher concentrations [3]: TRIS>MES>TAPS
- comparative growth of Pseudomonas [6]: all 5 cationic buffers being better than TRIS

Molecule: CN(C)CC[N+](C)(C)C [n = 2 (—CH2CH2—)]
- Change in pKa of Me2N— [5, 7]: ~−3.7 log K units

Molecule: CN(C)CC(O)C[N+](C)(C)C.[Cl-] (centres unmarked) [Compound 8]
- pKa quoted in comparison of buffers with similar pKa values [2]: 7.9
- comparative growth behaviour between buffers [3]: is better than TRIS
- comparative growth of Pseudomonas [6]: DEAGA and MEAGA are clearly better than DIMEGA and DEGA
